Experimental findings from patent publication US20240246908A1 (ORION CORPORATION, priority 2021, published 2024) are described below.

The test system of the assay is YAP-TEAD. The experiment in a line: TEAD inhibition, Hippo Pathway TEAD Reporter MCF-7 luciferase assay. The format is cell-based. To be noted: Homo sapiens, MCF7, 24 h, Hippo Pathway TEAD Reporter MCF-7 cells, luciferase activity after 24 h; read-out: IC50 of the test compounds on YAP-TEAD inhibition (Group). Summed up:
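MCF-7 cells carrying a TEAD-responsive firefly luciferase reporter, with nuclear YAP1 driving constitutive expression, were treated the day after plating with compounds (11 concentrations, 4 replicates; 0.1% DMSO control). After 24 h, luciferase was read by ONE-Glo luminescence and IC50 determined.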

The structures appear in SMILES notation.

What is called IC50 is the concentration that inhibits the measured activity by half. As to `COc1ccc(Oc2ccc(C(F)(F)F)cc2)cc1NC(=O)C1CCC(=O)N1CCC(N)=O` (stereo not shown) [Compound 379, 1-(3-Amino-3-oxopropyl)-N-(2-methoxy-5-(4-(trifluoromethyl)-phenoxy)phenyl)-5-oxopyrrolidine-2-carboxamide], the IC50 was in the range of 50 to 300 nM.
Turning to `COc1ccc(Oc2ccc(F)c(F)c2)cc1NC(=O)C1CCC(=O)N1C1CC1` (stereo not shown) [Compound 111, 1-Cyclopropyl-N-(5-(3,4-difluorophenoxy)-2-methoxyphenyl)-5-oxopyrrolidine-2-carboxamide], the 50% inhibitory concentration (IC50) lay within 50 to 300 nM.
With `COc1cc(NC(=O)C2CCC(=O)N2C)cc(OC2CCC(F)(F)CC2)c1` (stereo in doubt) [Compound 275, (R)—N-(3-((4,4-Difluorocyclohexyl)oxy)-5-methoxyphenyl)-1-methyl-5-oxo-pyrrolidine-2-carboxamide] the figure was 50 to 300 nM.
With `COc1ccc(Oc2ncc(C(F)(F)F)cc2F)cc1NC(=O)[C@@H]1CNC(=O)N1C` [Compound 339, (S)—N-(5-((3-Fluoro-5-(trifluoromethyl)pyridin-2-yl)oxy)-2-methoxyphenyl)-3-methyl-2-oxoimidazolidine-4-carboxamide] the figure was under 50 nM.
With `COc1ccc(Oc2ccc(C(F)(F)F)cn2)cc1NC(=O)[C@@H]1CCC(=O)N1C1CC1` [Compound 129, (S)-1-Cyclopropyl-N-(2-methoxy-5-((5-(trifluoromethyl)pyridin-2-yl)oxy)-phenyl)-5-oxopyrrolidine-2-carboxamide] the figure was under 50 nM; with `CN1C(=O)NC[C@H]1C(=O)Nc1cc(/C=C/C2CCC(F)(F)CC2)cc2c1OCC2` [Compound 407, (S,E)-N-(5-(2-(4,4-Difluorocyclohexyl)vinyl)-2,3-dihydrobenzofuran-7-yl)-3-methyl-2-oxoimidazolidine-4-carboxamide], under 50 nM; with `CN1C(=O)CNCC1C(=O)Nc1cc(Oc2ccc(C(F)(F)F)cc2)cc2c1OCC2` (stereo not shown) [Compound 376, 1-Methyl-6-oxo-N-(5-(4-(trifluoromethyl)phenoxy)-2,3-dihydro-benzofuran-7-yl)piperazine-2-carboxamide], 50 to 300 nM.
On to `COc1ccc(Oc2ccc(C(F)(F)F)cc2)cc1NC(=O)[C@@H]1CN(C)C(=O)N1` [Compound 332, (S)—N-(2-Methoxy-5-(4-(trifluoromethyl)phenoxy)phenyl)-1-methyl-2-oxo-imidazolidine-4-carboxamide], for which the half-maximal inhibitory concentration (IC50) was in the range of 301 to 2000 nM.
Consider `COc1ccc(Oc2ccc(C(F)(F)F)cc2)cc1NC(=O)C1CCC(=O)N1` (stereo not shown) [Compound 1, N-(2-Methoxy-5-(4-(trifluoromethyl)phenoxy)phenyl)-5-oxo-pyrrolidine-2-carboxamide], for which the IC50 is under 50 nM.
With `COc1ccc(OC2C=CCCC2)cc1NC(=O)C1CCC(=O)N1C` (stereo not shown) [Compound 287, N-(5-(Cyclohex-2-en-1-yloxy)-2-methoxyphenyl)-1-methyl-5-oxopyrrolidine-2-carboxamide] the figure was 301 to 2000 nM; with `CN1C(=O)NC[C@@H]1C(=O)Nc1cc(Oc2ccc(C(F)(F)F)cn2)cc2c1OCO2` [Compound 181, (R)-3-Methyl-2-oxo-N-(6-((5-(trifluoromethyl)pyridin-2-yl)oxy)benzo-[d][1,3]dioxol-4-yl)imidazolidine-4-carboxamide], 301 to 2000 nM; with `COc1ccc(Oc2ccc(C(F)(F)F)cc2)cc1NC(=O)C1CN(C)C(=O)N1C(C)=O` (stereo not shown) [Compound 142, 3-Acetyl-N-(2-methoxy-5-(4-(trifluoromethyl)phenoxy)phenyl)-1-methyl-2-oxoimidazolidine-4-carboxamide], 301 to 2000 nM.
Take `COc1ccc(Oc2ccc(C(F)(F)F)cc2)cc1NC(=O)[C@@H]1CC(OC)C(=O)N1C` (stereo partly drawn) [Compound 143, (2S)-4-Methoxy-N-(2-methoxy-5-(4-(trifluoromethyl)phenoxy)phenyl)-1-methyl-5-oxopyrrolidine-2-carboxamide]: the IC50 is under 50 nM.
The figure for `COc1ccc(Oc2ccc(F)cc2F)cc1NC(=O)C1CCC(=O)N1C` (stereo not shown) [Compound 43, N-(5-(2,4-Difluorophenoxy)-2-methoxyphenyl)-1-methyl-5-oxopyrrolidine-2-carboxamide] is 50 to 300 nM; for `COc1ccc(Oc2ccc(C(F)(F)F)cc2)cc1NC(=O)[C@H]1CNC(=O)C1` [Compound 357, (R)—N-(2-Methoxy-5-(4-(trifluoromethyl)phenoxy)phenyl)-5-oxopyrrolidine-3-carboxamide] it is 50 to 300 nM; for `CN1C(=O)CCC1C(=O)Nc1cc(Oc2cccc(C(F)(F)F)c2)ccc1F` (stereo not shown) [Compound 41, N-(2-Fluoro-5-(3-(trifluoromethyl)phenoxy)phenyl)-1-methyl-5-oxopyrrolidine-2-carboxamide] it is 301 to 2000 nM.
The figure for `COc1ccc(Oc2ccc(C(F)(F)F)cc2)cc1NC(=O)C1CN(C)C(=O)C1O` (stereo not shown) [Compound 228, 4-Hydroxy-N-(2-methoxy-5-(4-(trifluoromethyl)phenoxy)phenyl)-1-methyl-5-oxopyrrolidine-3-carboxamide] is 301 to 2000 nM; for `COc1ccc(Oc2cccc(C(F)(F)F)c2)cc1NC(=O)C1CS(=O)(=O)N1C` (stereo not shown) [Compound 72, N-(2-Methoxy-5-(3-(trifluoromethyl)phenoxy)phenyl)-2-methyl-1,2-thiaze-tidine-3-carboxamide 1,1-dioxide] it is 301 to 2000 nM.
With `CN1C(=O)CCC1C(=O)Nc1cc(Oc2ccc(OC(F)(F)F)cc2)ccc1F` (stereo not shown) [Compound 328, N-(2-Fluoro-5-(4-(trifluoromethoxy)phenoxy)phenyl)-1-methyl-S-oxopyrrolidine-2-carboxamide] the figure was 50 to 300 nM.
For `CN1C(=O)NC[C@H]1C(=O)Nc1cc(Cl)cc(Oc2ccc(C(F)(F)F)cn2)c1` [Compound 351, (S)—N-(3-Chloro-5-((5-(trifluoromethyl)pyridin-2-yl)oxy)phenyl)-3-methyl-2-oxoimidazolidine-4-carboxamide], the concentration for half-maximal inhibition (IC50) is under 50 nM.
`COc1ccc(Oc2ccc(C(F)(F)F)cc2)cc1NC(=O)[C@@H]1CN(C)C(=O)N1C(C)=O` [Compound 342, (S)-3-Acetyl-N-(2-methoxy-5-(4-(trifluoromethyl)phenoxy)phenyl)-1-methyl-2-oxoimidazolidine-4-carboxamide]: the IC50 is 50 to 300 nM.
The figure for `CN1C(=O)CCC1C(=O)Nc1cc(Oc2ccc(C(F)(F)F)cc2)ccc1-c1nnco1` (stereo not shown) [Compound 83, N-(2-(1,3,4-Oxadiazol-2-yl)-5-(4-(trifluoromethyl)phenoxy)phenyl)-1-methyl-5-oxopyrrolidine-2-carboxamide] is 50 to 300 nM.
As to `COc1ccc(Oc2cccc(Cl)c2)cc1NC(=O)[C@@H]1CNC(=O)N1C` [Compound 348, (S)—N-(5-(3-Chlorophenoxy)-2-methoxyphenyl)-3-methyl-2-oxoimidazolidine-4-carboxamide], the IC50 is under 50 nM.
Regarding `COc1ccc(Oc2cccc(C(F)(F)F)c2)cc1NC(=O)[C@@H]1CCC(=O)N1C(C)=O` (stereo in doubt) [Compound 30, 1-Acetyl-N-(2-methoxy-5-(3-(trifluoromethyl)phenoxy)phenyl)-5-oxo-pyrrolidine-2-carboxamide], the IC50 was 50 to 300 nM.
With `COc1ccc(Oc2ccc(C(F)(F)F)cc2)cc1NC(=O)C1CCC(=O)N1CC1CC1` (stereo not shown) [Compound 147, 1-(Cyclopropylmethyl)-N-(2-methoxy-5-(4-(trifluoromethyl)phenoxy)phenyl)-5-oxopyrrolidine-2-carboxamide] the figure was 50 to 300 nM; with `CN1C(=O)CC[C@@H]1C(=O)Nc1cc(Oc2ccc(C(F)(F)F)cn2)cc2c1OCC2` [Compound 162, (R)-1-Methyl-5-oxo-N-(5-((5-(trifluoromethyl)pyridin-2-yl)oxy)-2,3-dihydro-benzofuran-7-yl)pyrrolidine-2-carboxamide], under 50 nM; with `O=C1CCC(C(=O)Nc2cc(Oc3cccc(C(F)(F)F)c3)cc3c2OCO3)N1` (stereo not shown) [Compound 33, 5-Oxo-N-(6-(3-(trifluoromethyl)phenoxy)benzo[d][1,3]dioxol-4-yl)pyrrolidine-2-carboxamide], under 50 nM.
Regarding `COc1ccc(Oc2ccc(C(F)(F)F)cc2)cc1NC(=O)C1CCC(=O)N1c1cnn(C)c1` (stereo not shown) [Compound 137, N-(2-Methoxy-5-(4-(trifluoromethyl)phenoxy)phenyl)-1-(1-methyl-1H-pyrazol-4-yl)-5-oxopyrrolidine-2-carboxamide], the IC50 is 301 to 2000 nM.
Consider `COc1cc(F)c(Oc2ccc(C(F)(F)F)cn2)cc1NC(=O)C1COC(=O)N1C` (stereo not shown) [Compound 152, N-(4-Fluoro-2-methoxy-5-((5-(trifluoromethyl)pyridin-2-yl)oxy)phenyl)-3-methyl-2-oxooxazolidine-4-carboxamide], for which the IC50 was under 50 nM.
With `COc1cc(NC(=O)C2CCC(=O)N2C)cc(Oc2ccc(C(F)(F)F)cc2)c1` (stereo not shown) [Compound 279, N-(3-Methoxy-5-(4-(trifluoromethyl)phenoxy)phenyl)-1-methyl-5-oxo-pyrrolidine-2-carboxamide] the figure was under 50 nM.
The figure for `COCC(=O)N1C(=O)CCC1C(=O)Nc1cc(Oc2cc(C(F)(F)F)ccn2)ccc1OC` (stereo not shown) [Compound 331, N-(2-Methoxy-5-((4-(trifluoromethyl)-pyridin-2-yl)oxy)phenyl)-1-(2-methoxyacetyl)-5-oxopyrrolidine-2-carboxamide] is 50 to 300 nM.
With `COc1ccc(Oc2ccc(C(F)(F)F)cc2Cl)cc1NC(=O)C1CCC(=O)N1` (stereo not shown) [Compound 350, N-(5-(2-Chloro-4-(trifluoromethyl)phenoxy)-2-methoxyphenyl)-5-oxopyrrolidi-ne-2-carboxamide] the figure was 50 to 300 nM.
As to `COc1ccc(Oc2ccc(F)c(F)c2)c(C)c1NC(=O)C1CCC(=O)N1C` (stereo not shown) [Compound 389, N-(3-(3,4-Difluorophenoxy)-6-methoxy-2-methylphenyl)-1-methyl-5-oxopyrrolidine-2-carboxamide], the half-maximal inhibitory concentration (IC50) was in the range of 301 to 2000 nM.
Consider `CN1C(=O)CC[C@H]1C(=O)Nc1cc(Oc2ccc(C(F)(F)F)cn2)cc2c1OCC2` [Compound 163, (S)-1-Methyl-5-oxo-N-(5-((5-(trifluoromethyl)pyridin-2-yl)oxy)-2,3-dihydro-benzofuran-7-yl)pyrrolidine-2-carboxamide], for which the IC50 was under 50 nM.
